Paper PMC12320299 (Chemical Science, 2025)

How the values were obtained:
p21 = p21 expression, immunofluorescence, CT26; format: cell-based, murine; conditions: 24 h, 1 μM
Protocol: Cell Signaling Technology (Danvers, MA, USA), respectively. Horseradish-peroxidase-linked secondary antibodies, anti-mouse IgG (Fc specific) antibody (#7076S) and anti-rabbit IgG antibody (#7074S) were purchased from Cell Signaling Technology (Danvers, MA, USA). Anti-ß-actin (AC-15) (A5441, 1:2000) was obtained from Sigma-Aldrich (St. Louis, MO, USA).
SW480 and CT26 cells were grown at a density of 6.7x10^4 cells/mL on 8-well glass coverslips (80841, ibidi GmbH, Gräfelfing, Germany) in 300 µL complete media. The next day, cells were treated with respective compounds for 24 h. Cells were fixed with 4%(v/v) paraformaldehyde for 15 min at RT, followed by washing, blocking and permeabilization with 5%(w/v) BSA and […]
(1 : 500) were diluted in 1% BSA-0.3% Triton-X-100 in PBS and incubated overnight at 4 °C.
One well was incubated without primary antibody as background control. Cells were washed and stained with secondary goat anti-mouse AlexaFlour-488 (1 : 500 dilution, A-11029, Thermo Fisher Scientific) or goat anti-rabbit AlexaFlour-488 (1 : 500 dilution, A-11034, Thermo Fisher Scientific) antibodies for 1 h at RT. Following, cells were stained with 0.2% Wheat Germ Agglutinin (WGA)-Rhodamine (RL-1022, Vector Laboratories, Inc.) and 0.1% DAPI (62248, Thermo Fisher Scientific) for staining of plasma membrane and nuclei, respectively, according to manufacturer’s recommendations. […]

[1] = biological target: T1, ATP-dependent RNA helicase DDX3X (Homo sapiens, UniProt O00571); assay: Peptide centric local stability assay in SW480 whole cell lysate; format: binding; conditions: 1 μM
T1 construct: endogenous in cells; host or cells: SW480 whole cell lysate
T1 sequence (O00571 whole entry): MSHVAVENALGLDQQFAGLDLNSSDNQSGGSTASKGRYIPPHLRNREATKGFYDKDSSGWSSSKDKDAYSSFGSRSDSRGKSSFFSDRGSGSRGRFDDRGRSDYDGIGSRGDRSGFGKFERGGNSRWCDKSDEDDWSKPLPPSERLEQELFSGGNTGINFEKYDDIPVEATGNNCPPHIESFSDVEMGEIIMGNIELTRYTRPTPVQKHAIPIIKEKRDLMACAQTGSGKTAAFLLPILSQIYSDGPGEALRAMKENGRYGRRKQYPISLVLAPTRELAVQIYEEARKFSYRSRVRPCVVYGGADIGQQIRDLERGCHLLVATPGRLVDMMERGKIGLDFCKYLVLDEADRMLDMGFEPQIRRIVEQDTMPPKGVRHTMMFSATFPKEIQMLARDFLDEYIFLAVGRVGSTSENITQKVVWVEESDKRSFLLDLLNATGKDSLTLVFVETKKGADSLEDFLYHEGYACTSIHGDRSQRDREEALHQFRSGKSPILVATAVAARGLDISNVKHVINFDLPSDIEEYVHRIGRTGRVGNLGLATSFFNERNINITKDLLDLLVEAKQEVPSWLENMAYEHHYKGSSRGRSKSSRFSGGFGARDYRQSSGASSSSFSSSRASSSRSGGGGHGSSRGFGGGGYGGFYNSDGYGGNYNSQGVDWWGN
Text: The method relies on a limited-proteolysis strategy, where ligand-binding on target proteins is expected to increase the stability of the proteins against proteolytic digestion. This specifically enables the identification of target proteins of small molecules. […] Being a ruthenium(arene) derivative, plecstatin-1 was used to assess potential non-specific interactors of the ruthenium(cymene) fragment. […] However, among the selective interaction partners, we found specific peptides of ATP-dependent RNA helicase DDX3X, tubulin alpha-1A (TUBA1A) and albumin (ALB). Several peptides of TUBA1A and ALB were also found to be stabilized by plecstatin-1 indicating low specificity.
Peptide Local Stability Assay
SW480 cancer cells were cultivated in complete medium as above in two T75 adherent flasks.
The protein extraction was performed on ice. The flasks were washed twice with PBS (1×, 5 mL) and the wash solution was completely removed. Then, PBS (1×, 2mL, containing 1% PPC) was added in each T75 flak. The cells were scraped off and the cell suspension was transferred to 15 mL falcon tubes. […]
The clear supernatant was pooled in a 5 mL Eppendorf tube and kept on ice. The protein concentration was determined using a BCA assay as described above and adjusted to 1 µg/µL using PBS (1×, containing 1% PPC). […]

Compound: CCC1=C2[O][Ru][O]C2(n2cccn2)c2ccccc2C1=O.Cc1ccc(C(C)C)cc1 (centres unmarked) [Compound 1a, [(3-ethyl-4-oxo-(pyrazolyl)-dihydronaphthalene)(cymene)ruthenium(II)]]
- p21 expression, CT26 (p21): significantly reduced p21 expression
- direct interaction with DDX3X [1]: most probable direct binding partner
